Series [1] relates to human erythrocytes. Put plainly: Hemolytic activity assay. It counts as cell-based. As to the method:
The hemolytic activity of each peptide was determined by the leakage of hemoglobin from human erythrocytes (obtained from Divbioscience, NL) as previously described (Oyama et al., 2017 Biofilms Microbiomes, Dec 1;3:33).
Briefly, human erythrocytes were washed 3 times with phosphate buffer saline (PBS) and concentrated using centrifugation at 800 g for 5 min. Human erythrocytes were then resuspended in PBS at a final concentration of 8 %. 100 µl of human erythrocytes were then added per well of sterile 96 well microplate already containing 15 µl of serially diluted antimicrobials (1:2 in distilled water). After 1 h at 37°C, the microplate was centrifuged at 800 g for 5 min. 100 µl were then carefully collected and transferred to a new 96 well microplate and OD was measured at 405 nm. Hemolysis caused by peptides was expressed as percentage of hemolysis; Triton-X100 at 0.1 % (v:v) was used as positive control and gave 100 % hemolysis. Hemolysis rate was determined as below: Hemolysis rate (%) = (A−A2)/(A1−A2) × 100% [formula] where A is the absorbance of indicator mixtures with different factors, A1 and A2 are the positive control, and the negative control, respectively.

Series [2] relates to S. aureus.
Series [3] deals with E. coli.
In series [4] the test system is B. subtilis.
Series [5] relates to A.baumani.
In series [6] the test system is Candida albicans.
Series [7] relates to P. aeruginosa.
Series [8] has as its system Gram-positive and Gram-negative bacteria.
For series [9], the system named is HeLa TLR4/IL-8 Renilla Luciferase Reporter cell line. Put plainly: Anti-inflammatory activity (LPS stimulation, luciferase reporter). The settings on record: 10 ng/mL LPS from P. aeruginosa; 6 h incubation; read-out: IC50 (inhibition of LPS effect). It counts as cell-based. The procedure:
Anti-inflammatory activity of the peptides was determined using eLUCidate™ HeLa TLR4/IL-8 Renilla Luciferase Reporter cell line (obtained from ASMBIO). eLUCidate™ HeLa cells were cultivated according to manufacturer instructions. eLUCidate™ HeLa cells were seeded in 96 wells plates at an initial 50,000 cells/well. The next day, media from wells was empty and cells were exposed to LPS from P. aeruginosa (from Sigma Aldrich) diluted in culture media at a final concentration of 10 ng/ml in the presence of increasing concentrations of peptides. Polymyxin B (PMB, from Sigma Aldrich) was used as positive control. After 6 h incubation at 37°C in an incubator containing 5% CO2, wells were empty and cells were lysed in 70 µl of PBS containing 1% Triton X100 for 15 min on ice. 50 µl of cell lysats were then transferred to white 96 wells plates containing 50 µl of Renilla Luciferase substrate (Genofax A from Yelen, Marseille France). Luminescence intensities were measured using microplate reader (Synergy Mx, Biotek). The luminescence values were normalized by the controls (buffer treated cells) and expressed as percent of LPS stimulation. […]

The test system of series [10] is E. coli. The settings on record: Konno et al., Peptides 2006; cited from earlier work.
In series [11] the test system is P. aeruginosa. To be noted: Konno et al., Peptides 2006; cited from earlier work.

We go through four substances from patent EP3838286B1, “ANTIMICROBIAL PEPTIDE FROM POLISTES GALLICUS VENOM AND ITS ANALOGS” (Latoxan, priority 2019, dated 2021).

Where “and” joins values, the source holds several entries; their conditions need not be identical. Equal values may be shown once. Ends that are not written are not given here. Bounds are passed on as bounds.

On to “ILKAIKKLLKN-NH2 [LTX-gallicune-1 (I1N11)]”, for which the hemolytic activity entry in series [1] (at 1mM) is listed as “not hemolytic”. In [1] (highest concentration tested), the “hemotoxicity: no toxicity towards red blood cells up to” value is listed as more than 10 mM. Also, the “times less toxic (hemotoxic) than Gallicus-CP” value in [1] (human erythrocytes, Fig 3) was determined as 1000 times. For the same substance, the “MIC against S. aureus” value in [2] is given as not below 100 µM. For the same substance, in series [3], the “MIC (µM) E. coli” value came out at 6.25 µM and the “MIC against E. coli” value was more than 50 µM. Moreover, the “MIC against B. subtilis” value in series [4] turned out to be 6.25 µM. Further, the “MIC (µM) A.baumani” value in series [5] was 100 µM. For the same substance, in [6], the “MIC against Candida albicans” value is recorded as 50 µM.
In the case of ILSAILGLLKNL-NH2 [Gallicus-CP(I1L12)], the “50% MHC (concentration inducing 50% hemolysis of human erythrocytes)” value in [1] was 10 µM. Also, in [7], the “MIC (µM) P. aeruginosa” value turned out to be 100 µM. Also, in series [8], the “minimal inhibitory concentration (MIC)” value lay within 1.56 to 100 µM.
With Polymyxin B [PMB], the IC50 in series [9] was 0.057 µM and 0.0576 µM.
Consider eumenitin, for which the “effective concentration against E. coli” value in series [10] is 6 µM. The “effective concentration against P. aeruginosa” value in [11] was 30 µM.
